For the experiment, the target named is His-tagged recombinant human Gal-3 (hGal-3) (Homo sapiens (Human), UniProt P17931). As to the kind of experiment: Gal-3 HTRF assay (His-tagged hGal-3 binding to B-ASF). (In TR-FRET formats the signal depends on donor and acceptor labels being close together.)
The mark [1] stands for this setting: HTRF, hGal-3 15 nM, B-ASF 15 nM, read-out: hGal-3 IC50.

The structures appear in SMILES notation. Read-outs that look alike come from different tables or passages of the source.
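Also: compounds preincubated 30 min with hGal-3, then 1 h with B-ASF, detection via terbium anti-His antibody and streptavidin d2. Control with B-ASF counts as full signal, omitting B-ASF as background.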

Sequence of His-tagged recombinant human Gal-3 (hGal-3) (P17931 whole entry): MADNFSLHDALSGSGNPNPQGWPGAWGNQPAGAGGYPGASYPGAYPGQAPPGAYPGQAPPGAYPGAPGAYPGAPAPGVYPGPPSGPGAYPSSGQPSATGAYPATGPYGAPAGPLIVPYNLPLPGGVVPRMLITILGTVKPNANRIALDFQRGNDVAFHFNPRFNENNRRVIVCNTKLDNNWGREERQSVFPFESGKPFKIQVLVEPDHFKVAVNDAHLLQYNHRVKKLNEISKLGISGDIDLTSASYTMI

As usually defined, the IC50 is the concentration at which inhibition is half-maximal. As for `OC[C@H]1O[C@@H](c2nncn2-c2ccc(-n3cccc3)cc2)[C@H](O)[C@@H](n2cc(-c3cc(F)c(F)c(F)c3)nn2)[C@H]1O` [Example 109], the IC50 under setting [1] was 520 nM. As to `OC[C@H]1O[C@@H](c2nncn2-c2cc(Cl)cc(Cl)c2)[C@H](O)[C@@H](n2cc(-c3cc(F)c(F)c(F)c3)nn2)[C@H]1O` [Example 101], the IC50 under setting [1] was 80 nM.

Take `Cc1nc2cc(-c3cn([C@H]4[C@@H](O)[C@@H](CO)O[C@@H](c5ncnn5-c5ccc6nc(C)sc6c5)[C@@H]4O)nn3)cc(F)c2o1` [Example 227]: the IC50 (read-out: hGal3 IC50) turned out to be 250 nM. As for `OC[C@H]1O[C@@H](c2ccnn2-c2ccc(Cl)c(Cl)c2)[C@H](O)[C@@H](n2cc(-c3cc(F)c(F)c(F)c3)nn2)[C@H]1O` [Example 285, (2S,3R,4R,5R,6R)-2-(1-(3,4-dichlorophenyl)-1H-pyrazol-5-yl)-6-(hydroxymethyl)-4-(4-(3,4,5-trifluorophenyl)-1H-1,2,3-triazol-1-yl)tetrahydro-2H-pyran-3,5-diol], the IC50 under setting [1] was 445 nM.

Consider `OC[C@H]1O[C@@H](n2nncc2-c2ccc3c(c2)OCO3)[C@H](O)[C@@H](n2cc(-c3cc(F)c(F)c(F)c3)nn2)[C@H]1O` [Example 4], for which the IC50 under setting [1] came to 386 nM. Turning to `COc1cc(-c2cn([C@H]3[C@@H](O)[C@@H](CO)O[C@@H](c4nc(C)nn4-c4cc(Cl)ccc4C(F)(F)F)[C@@H]3O)nn2)ccc1Cl` [Example A79], the IC50 (read-out: hGal IC50) was determined as 40 nM. On to `Cc1nc([C@@H]2O[C@H](CO)[C@H](O)[C@H](n3cc(-c4ccc(Cl)c(F)c4)nn3)[C@H]2O)n(-c2ccccc2)n1` [Example 247], for which, where the note is “read-out: hGal3 IC50”, the IC50 was 450 nM.

For the compound `Cc1nc([C@@H]2O[C@H](CO)[C@H](O)[C@H](n3cc(-c4cc(F)c(Cl)c(F)c4)nn3)[C@H]2O)n(-c2ccc3nc(C)sc3c2)n1` [Example A36], the IC50 (read-out: hGal IC50) amounted to 53 nM.

Take `Cc1nc2ccc(-n3ncnc3[C@@H]3O[C@H](CO)[C@H](O)[C@H](n4cc(C(=O)NC5CCC5)nn4)[C@H]3O)cc2s1` [Example 199]: the IC50 under setting [1] worked out at 360 nM.

On to `Cc1nc([C@H]2C[C@@H](n3cc(-c4cc(F)c(Cl)c(F)c4)nn3)[C@@H](O)[C@@H](CO)O2)n(-c2ccc3ncsc3c2)n1` [Example 265], for which the IC50 (read-out: hGal3 IC50) worked out at 30 nM.

On to `Cc1nc([C@@H]2O[C@H](CO)[C@H](O)[C@H](n3cc(-c4cc(F)c(Br)c(F)c4)nn3)[C@H]2O)n(-c2cc(Cl)cc3cccnc23)n1` [Example A14], for which the IC50 (read-out: hGal IC50) amounted to 24 nM. For `CC(=O)Nc1cccc(-n2cnnc2[C@@H]2O[C@H](CO)[C@H](O)[C@H](n3cc(-c4cc(F)c(F)c(F)c4)nn3)[C@H]2O)c1` [Example 84], the IC50 under setting [1] was found to be 900 nM.

Regarding `OC[C@H]1O[C@@H](c2nncn2-c2ccc(-c3cnco3)cc2)[C@H](O)[C@@H](n2cc(-c3cc(F)c(F)c(F)c3)nn2)[C@H]1O` [Example 82], the IC50 under setting [1] was determined as 580 nM.

Turning to `OC[C@H]1O[C@@H](c2nncn2-c2cccc(F)c2)[C@H](O)[C@@H](n2cc(-c3cc(F)c(F)c(F)c3)nn2)[C@H]1O` [Example 154], the IC50 under setting [1] came out at 80 nM. As to `Cn1ncnc1[C@@H]1O[C@H](CO)[C@H](O)[C@H](n2cc(-c3cc(F)c(F)c(F)c3)nn2)[C@H]1O` [Example 44], under setting [1], the IC50 worked out at 4460 nM. Regarding `OC[C@H]1O[C@@H](c2nncn2-c2cccc(-c3ccccc3)c2)[C@H](O)[C@@H](n2cc(-c3cc(F)c(F)c(F)c3)nn2)[C@H]1O` [Example 100], the IC50 under setting [1] stood at 470 nM. The same measure, in the same setting: the same measure for `Cc1nc2ccc(-n3nc(CC(N)=O)nc3[C@@H]3O[C@H](CO)[C@H](O)[C@H](n4cc(-c5cc(F)c(F)c(F)c5)nn4)[C@H]3O)cc2s1` [Example 268]: 120 nM.

Take `Cc1nc2ccc(-n3ncnc3[C@@H]3O[C@H](CO)[C@H](O)[C@H](n4cc(-c5cc(F)cc(Cl)c5)nn4)[C@H]3O)cc2s1` [Example 240]: for the setting “read-out: hGal3 IC50”, the IC50 came out at 160 nM. On to `Cc1nc([C@@H]2O[C@H](CO)[C@H](O)[C@H](n3cc(-c4cc(F)c(Cl)c(F)c4)nn3)[C@H]2O)n(-c2cc(Cl)cc(F)c2Cl)n1` [Example A49], for which the IC50 (read-out: hGal IC50) amounted to 46 nM.
